Results reported in the NIST ThermoML archive (doi:10.1021/je049814b).

Test: wn = mass fraction of the nth substance listed
Details: Liquid, Coaxial cylinder method

[Br-].[K+] [potassium bromide] + O
thermal conductivity [W/m/K]
Details | 100 kPa | 2000 kPa | 10000 kPa | 40000 kPa
294.7 K, w1 = 0.1 | 0.578 | 0.578 | 0.582 | 0.592
295.7 K, w1 = 0.3 | 0.521 | 0.521 | 0.525 | 0.532
296.8 K, w1 = 0.2 | 0.553 | 0.553 | 0.557 | 0.565
320.9 K, w1 = 0.1 | 0.612 | 0.612 | 0.617 | 0.628
321.4 K, w1 = 0.3 | 0.554 | 0.554 | 0.559 | 0.569
325.4 K, w1 = 0.2 | 0.589 | 0.589 | 0.595 | 0.602
351.2 K, w1 = 0.2 | 0.616 | 0.616 | 0.62 | 0.629
354.8 K, w1 = 0.1 | 0.644 | 0.644 | 0.65 | 0.662
357.6 K, w1 = 0.3 | 0.588 | 0.588 | 0.591 | 0.601
381.3 K, w1 = 0.1 | 0.661 | 0.661 | 0.669 | 0.682
384.2 K, w1 = 0.3 | 0.601 | 0.601 | 0.605 | 0.616
387.6 K, w1 = 0.2 | 0.634 | 0.634 | 0.638 | 0.647
403.2 K, w1 = 0.1 | 0.661 | 0.661 | 0.667 | 0.683
406.2 K, w1 = 0.2 | 0.632 | 0.632 | 0.638 | 0.648
409.6 K, w1 = 0.3 | 0.6 | 0.6 | 0.606 | 0.618
425.9 K, w1 = 0.1 | 0.657 | 0.657 | 0.662 | 0.681
427.2 K, w1 = 0.3 | 0.598 | 0.598 | 0.604 | 0.616
431.2 K, w1 = 0.2 | 0.628 | 0.628 | 0.634 | 0.646
456.9 K, w1 = 0.2 | 0.616 | 0.616 | 0.623 | 0.635
457.6 K, w1 = 0.1 | 0.643 | 0.643 | 0.65 | 0.665
463.1 K, w1 = 0.3 | 0.582 | 0.582 | 0.586 | 0.599
481.3 K, w1 = 0.2 | – | – | 0.609 | 0.623
488.2 K, w1 = 0.1 | – | – | 0.628 | 0.65
494.2 K, w1 = 0.3 | – | – | 0.564 | 0.579
516.3 K, w1 = 0.3 | – | – | 0.542 | 0.562
519.3 K, w1 = 0.1 | – | – | 0.598 | 0.622
520.6 K, w1 = 0.2 | – | – | 0.575 | 0.592
539.7 K, w1 = 0.3 | – | – | 0.511 | 0.538
543.2 K, w1 = 0.1 | – | – | 0.569 | 0.597
547.6 K, w1 = 0.2 | – | – | 0.539 | 0.564
571.3 K, w1 = 0.2 | – | – | 0.501 | 0.534
571.9 K, w1 = 0.1 | – | – | 0.522 | 0.55
575.6 K, w1 = 0.3 | – | – | 0.455 | 0.496

[Br-].[Na+] [sodium bromide] + O
thermal conductivity [W/m/K]
Details | 100 kPa | 2000 kPa | 10000 kPa | 40000 kPa
294.3 K, w1 = 0.1 | 0.58 | 0.58 | 0.586 | 0.596
294.7 K, w1 = 0.38 | 0.504 | 0.504 | 0.512 | 0.525
296 K, w1 = 0.2 | 0.56 | 0.56 | 0.565 | 0.575
297.2 K, w1 = 0.3 | 0.537 | 0.537 | 0.541 | 0.55
319.6 K, w1 = 0.38 | 0.531 | 0.531 | 0.536 | 0.549
319.9 K, w1 = 0.2 | 0.595 | 0.595 | 0.599 | 0.609
321.7 K, w1 = 0.1 | 0.618 | 0.618 | 0.624 | 0.635
323.9 K, w1 = 0.3 | 0.573 | 0.573 | 0.578 | 0.587
347.2 K, w1 = 0.38 | 0.56 | 0.56 | 0.565 | 0.578
350.2 K, w1 = 0.2 | 0.624 | 0.624 | 0.628 | 0.639
354.2 K, w1 = 0.1 | 0.648 | 0.648 | 0.653 | 0.664
357.7 K, w1 = 0.3 | 0.601 | 0.601 | 0.608 | 0.617
374.5 K, w1 = 0.38 | 0.58 | 0.58 | 0.589 | 0.603
377.9 K, w1 = 0.2 | 0.637 | 0.637 | 0.642 | 0.653
378.6 K, w1 = 0.1 | 0.659 | 0.659 | 0.663 | 0.674
380.2 K, w1 = 0.3 | 0.61 | 0.61 | 0.617 | 0.627
396.5 K, w1 = 0.2 | 0.643 | 0.643 | 0.648 | 0.659
398.7 K, w1 = 0.38 | 0.585 | 0.585 | 0.593 | 0.609
399.2 K, w1 = 0.1 | 0.664 | 0.664 | 0.669 | 0.679
401 K, w1 = 0.3 | 0.615 | 0.615 | 0.623 | 0.633
424.5 K, w1 = 0.38 | 0.585 | 0.585 | 0.593 | 0.609
426.4 K, w1 = 0.3 | 0.614 | 0.614 | 0.624 | 0.637
427.5 K, w1 = 0.1 | 0.664 | 0.664 | 0.671 | 0.682
429.2 K, w1 = 0.2 | 0.643 | 0.643 | 0.649 | 0.659
450.6 K, w1 = 0.2 | 0.632 | 0.632 | 0.638 | 0.652
453.7 K, w1 = 0.1 | 0.652 | 0.652 | 0.659 | 0.672
455 K, w1 = 0.3 | 0.6 | 0.6 | 0.608 | 0.621
456.7 K, w1 = 0.38 | 0.572 | 0.572 | 0.583 | 0.6
483.2 K, w1 = 0.2 | – | – | 0.618 | 0.634
483.2 K, w1 = 0.38 | – | – | 0.569 | 0.59
486.2 K, w1 = 0.1 | – | – | 0.639 | 0.66
515.3 K, w1 = 0.1 | – | – | 0.611 | 0.634
515.7 K, w1 = 0.38 | – | – | 0.535 | 0.565
519.4 K, w1 = 0.2 | – | – | 0.583 | 0.601
541.3 K, w1 = 0.38 | – | – | 0.504 | 0.539
542.7 K, w1 = 0.1 | – | – | 0.576 | 0.604
547.6 K, w1 = 0.2 | – | – | 0.546 | 0.571
576.2 K, w1 = 0.2 | – | – | 0.504 | 0.535
576.5 K, w1 = 0.38 | – | – | 0.454 | 0.494
577.3 K, w1 = 0.1 | – | – | 0.525 | 0.566
